Experimental data taken from patent US20050042688A1, “Cellular analysis” (priority 2003, published 2005).

System: T cells
Conditions: whole blood collected in EDTA versus heparin as anticoagulant, 37° C., activated with PDBu/ionomycin
Method: In this example, whole blood was collected from a donor in collection tubes containing heparin (curve 1) or EDTA (curve 2), respectively, as the anticoagulants. Blood samples were then incubated at 37° C. and activated with phorbol ester and a calcium ionophore (PDBu/I, phorbol-12,13-dibutyrate/ionomycin).

O=C(O)CN(CCN(CC(=O)O)CC(=O)O)CC(=O)O [EDTA]
responsiveness of T-cells (level of inducible actin polymerization by PDBu/I): dramatic decrease in the responsiveness of T-cells
